Test results from US20120065063A1, “3-Aryl-4-(2,6-dimethylbenzylidene)isoxazol-5(4H)-ones as Fungicides” (Bayer CropScience AG, priority 2010, published 2012).
Blank lines part the entries; values can stand above or below the compound they belong to.

How the values were obtained:
[1] = tested on: Blumeria graminis f.sp. tritici; test: Blumeria test (wheat)/protective; format: in vivo; conditions: protective, 1000 ppm, evaluation 7 days after inoculation
Procedure: Blumeria Test (Wheat)/Protective [table] To produce an appropriate active compound formulation, I part by weight of active compound is mixed with the specified amounts of solvent and emulsifier, and the concentrate is diluted with water to the desired concentration. To test for protective activity, young plants are sprayed with the preparation of active compound at the stated application rate. After the spray coating has dried on, the plants are dusted with spores of Blumeria graminis f.sp. tritici.

[2] = tested on: Alternaria solani; test: Alternaria test (tomato)/protective; format: in vivo; conditions: protective, 500 ppm, evaluation 7 days after inoculation
Procedure: Alternaria Test (Tomato)/Protective [table] To produce an appropriate active compound formulation, 1 part by weight of active compound is mixed with the specified amounts of solvent and emulsifier, and the concentrate is diluted with water to the desired concentration. To test for protective activity, young tomato plants are sprayed with the preparation of active compound at the stated application rate. 1 day after the treatment, the plants are inoculated with a spore suspension of Alternaria solani and then remain at 100% relative humidity and 20° C. for 24 h. The plants then remain at 96% relative atmospheric humidity and a temperature of 20° C.

[3] = tested on: Sphaerotheca fuliginea; test: Sphaerotheca test (cucumber)/protective; format: in vivo; conditions: protective, 500 ppm, evaluation 7 days after inoculation
Procedure: Sphaerotheca Test (Cucumber)/Protective [table] To produce an appropriate active compound formulation, 1 part by weight of active compound is mixed with the specified amounts of solvent and emulsifier, and the concentrate is diluted with water to the desired concentration. To test for protective activity, young cucumber plants are sprayed with the preparation of active compound at the stated application rate. 1 day after the treatment, the plants are inoculated with a spore suspension of Sphaerotheca fuliginea. The plants are then placed in a greenhouse at 70% relative atmospheric humidity and a temperature of 23° C.

[4] = tested on: Plasmopara viticola; test: Plasmopara test (grapevine)/protective; format: in vivo; conditions: protective, 100 ppm, evaluation 6 days after inoculation
Procedure: Plasmopara Test (Grapevine)/Protective [table] To produce an appropriate active compound formulation, I part by weight of active compound is mixed with the specified amounts of solvent and emulsifier, and the concentrate is diluted with water to the desired concentration. To test for protective efficacy, young plants are sprayed with the active compound formulation at the stated application rate. After the spray coating has dried on, the plants are inoculated with an aqueous spore suspension of Plasmopara viticola and then remain in an incubation cabin at about 20° C. and 100% relative atmospheric humidity for 1 day. The plants are then placed in a greenhouse at about 21° C. and about 90% atmospheric humidity for 4 days. The plants are then moistened and placed in an incubation cabin for 1 day.

[5] = tested on: Venturia inaequalis; test: Venturia test (apple)/protective; format: in vivo; conditions: protective, 100 ppm, evaluation 10 days after inoculation
Procedure: Venturia Test (Apple)/Protective [table] To produce an appropriate active compound formulation, 1 part by weight of active compound is mixed with the specified amounts of solvent and emulsifier, and the concentrate is diluted with water to the desired concentration. To test for protective efficacy, young plants are sprayed with the active compound formulation at the stated application rate. After the spray coating has dried on, the plants are inoculated with an aqueous conidia suspension of the apple scab pathogen Venturia inaequalis and then remain in an incubation cabin at about 20° C. and 100% relative atmospheric humidity for 1 day. The plants are then placed in the greenhouse at about 21° C. and a relative atmospheric humidity of about 90%.

[6] = tested on: Leptosphaeria nodorum; test: In vitro test for determining the ED50 value with Leptosphaeria nodorum; format: cell-based; conditions: 50% inhibition of fungal growth, microtitre plates, 6 days, 20° C.
Procedure: In Vitro Test for Determining the ED50 Value with Leptosphaeria nodorum The cavities of 96-well microtitre plates are filled with 1.5 μl of a solution of the test compounds in DMSO. 150 μl of a glucose/peptone medium comprising the spores of the test fungus in a suitable concentration are introduced into each cavity. The test compounds in the microtitre cavities are used in concentrations of 20, 6, 2 and 0.6 ppm. The absorbance is determined photometrically at 620 nm. The microtitre plates are left at 20° C. and 85% relative atmospheric humidity for 6 days. Once the incubation time has passed, the growth of the test organisms is determined photometrically at a wavelength of 620 nm. The difference in absorbances before and after the incubation corresponds to the growth of the test fungi. Based on the difference of the absorbances at the various test concentrations and the difference of the absorbances of the untreated control, a dose/activity curve is calculated. The concentration required to inhibit fungal growth by 50% is determined and reported as ED50 value (=Effective Dose which causes 50% inhibition of growth) in ppm (=mg/l).

[7] = log P by HPLC on reversed-phase columns (EEC directive 79/831 Annex V.A8); format: physicochemical; conditions: for log P: acidic range pH 2.7, 0.1% aqueous formic acid/acetonitrile; for chromatographic logP: reversed-phase HPLC column (C18), preparation examples, acidic range pH 2.7, formic acid, read-out: log P (HCOOH)
Procedure: The log P values were measured according to EEC directive 79/831 Annex V.A8 by HPLC (High Performance Liquid Chromatography) on reversed-phase columns (C 18), using the method below:
The determination was carried out in the acidic range at pH 2.7 using the mobile phases 0.1% aqueous formic acid and acetonitrile; linear gradient from 10% acetonitrile to 95% acetonitrile.

[8] = tested on: Spodoptera frugiperda; test: Spodoptera frugiperda test (spray treatment); format: in vivo; conditions: maize leaf discs, 500 g/ha
Procedure: Spodoptera frugiperda Test (Spray Treatment) [table] To produce a suitable preparation of active compound, 1 part by weight of active compound is mixed with the stated amounts of solvents and emulsifier, and the concentrate is diluted with emulsifier-containing water to the desired concentration. Discs of maize leaves (Zea mays) are sprayed with an active compound preparation of the desired concentration and, after drying, populated with caterpillars of the armyworm (Spodoptera frugiperda). After the desired period of time, the effect in % is determined. 100% means that all caterpillars have been killed; 0% means that none of the caterpillars have been killed.

[9] = tested on: Meloidogyne incognita; test: Meloidogyne test (spray treatment); format: in vivo; conditions: lettuce, 20 ppm
Procedure: Meloidogyne Test (Spray Treatment) [table] To prepare a suitable active compound preparation, 1 part by weight of active compound is mixed with the stated amount of solvent and the concentrate is diluted with water to the desired concentration. Containers are filled with sand, solution of active compound, Meloidogyne incognita egg/larvae suspension and lettuce seeds. The lettuce seeds germinate and the plants develop. On the roots, galls are formed. After the desired period of time, the nematicidal action is determined in % by the gall formation. 100% means that no galls have been found; 0% means that the number of galls on the treated plants corresponds to that of the untreated control.

SMILES: O=C1ON=C(c2ccccc2)C1=Cc1ccccc1 [Compound A-1]
- efficacy [1]: 29%
- efficacy [2]: 0%
- efficacy [3]: 30%

SMILES: O=C1ON=C(c2ccccc2)C1=Cc1ccc(Cl)cc1 [Compound A-2]
- efficacy [1]: 29%
- efficacy [4]: 38%
- efficacy [5]: 16%
- efficacy [2]: 0%
- efficacy [3]: 20%

SMILES: CC1=NOC(=O)C1=Cc1ccccc1 [Compound A-3]
- efficacy [1]: 57%
- efficacy [4]: 55%
- efficacy [5]: 48%
- efficacy [2]: 0%
- efficacy [3]: 30%

SMILES: CC1=NOC(=O)C1=Cc1ccc(C)cc1 [Compound A-4]
- efficacy [1]: 43%
- efficacy [4]: 35%
- efficacy [5]: 9%
- efficacy [2]: 0%
- efficacy [3]: 30%
- ED50 [6]: 14 ppm

SMILES: COc1ccc(C=C2C(=O)ON=C2C)cc1 [Compound A-5]
- efficacy [1]: 29%
- efficacy [4]: 40%
- efficacy [5]: 59%
- efficacy [2]: 0%
- efficacy [3]: 40%

SMILES: O=C1ON=C(c2ccccc2)C1=Cc1ccccc1Cl [Compound A-6]
- efficacy [1]: 29%
- efficacy [4]: 38%
- efficacy [5]: 14%
- efficacy [2]: 0%
- efficacy [3]: 50%

SMILES: CC1=NOC(=O)C1=Cc1ccc(N(C)C)cc1 [Compound A-7]
- efficacy [1]: 0%
- efficacy [4]: 45%
- efficacy [5]: 0%
- efficacy [2]: 0%
- efficacy [3]: 10%

SMILES: CC1=NOC(=O)/C1=C\c1ccco1 [Compound A-8]
- efficacy [1]: 29%
- efficacy [4]: 28%
- efficacy [5]: 6%
- efficacy [2]: 0%
- efficacy [3]: 0%

SMILES: Cc1cc(C)c(C=C2C(=O)ON=C2c2c(F)cccc2F)c(C)c1 [Compound I-24]
- log P [7]: 4.09
- activity (caterpillars killed) [8]: ≥ 80%

SMILES: Cc1cc(C)c(C=C2C(=O)ON=C2c2cc(Cl)ccc2Cl)c(C)c1 [Compound I-40]
- log P [7]: 4.71

SMILES: Cc1cc(C)c(C=C2C(=O)ON=C2c2cc(Br)ccc2Cl)c(C)c1 [Compound I-41]
- log P [7]: 4.83

SMILES: Cc1cccc(C)c1C=C1C(=O)ON=C1c1cc(Br)ccc1Cl [Compound I-42]
- log P [7]: 4.46

SMILES: Cc1cc(C)c(C=C2C(=O)ON=C2c2cccc(C(F)(F)F)c2)c(C)c1 [Compound I-45]
- log P [7]: 4.62

SMILES: Cc1cc(C)c(C=C2C(=O)ON=C2c2cccc([N+](=O)[O-])c2)c(C)c1 [Compound I-46]
- log P [7]: 3.85

SMILES: Cc1cccc(C2=NOC(=O)C2=Cc2c(C)cc(C)cc2C)c1 [Compound I-47]
- log P [7]: 4.45

SMILES: Cc1cc(C)c(C=C2C(=O)ON=C2c2ccc(C)c(C)c2)c(C)c1 [Compound I-49]
- log P [7]: 4.81

SMILES: Cc1cc(C)cc(C2=NOC(=O)C2=Cc2c(C)cccc2C)c1 [Compound I-51]
- log P [7]: 4.49

SMILES: Cc1cccc(C)c1C=C1C(=O)ON=C1c1ccccc1 [Compound I-52]
- log P [7]: 3.68

SMILES: COc1ccc(C2=NOC(=O)C2=Cc2c(C)cc(C)cc2C)cc1OC [Compound I-54]
- log P [7]: 4.09

SMILES: Cc1cc(C)c(C=C2C(=O)ON=C2c2cccc(F)c2)c(C)c1 [Compound I-55]
- log P [7]: 4.15

SMILES: Cc1cc(C)c(C=C2C(=O)ON=C2c2cccc(Cl)c2)c(C)c1 [Compound I-56]
- log P [7]: 4.48

SMILES: Cc1cc(C)c(C=C2C(=O)ON=C2c2ccc(Cl)c(Cl)c2)c(C)c1 [Compound I-57]
- log P [7]: 4.95

SMILES: Cc1cc(C)c(C=C2C(=O)ON=C2c2ccc(OC(F)(F)F)cc2)c(C)c1 [Compound I-60]
- log P [7]: 4.73

SMILES: Cc1cc(C)c(C=C2C(=O)ON=C2c2ccc(C(C)(C)C)cc2)c(C)c1 [Compound I-61]
- log P [7]: 5.43

SMILES: Cc1cc(C)c(C=C2C(=O)ON=C2c2ccc(-c3ccccc3)cc2)c(C)c1 [Compound I-63]
- log P [7]: 5.16

SMILES: Cc1cc(C)c(C=C2C(=O)ON=C2c2ccc([N+](=O)[O-])cc2)c(C)c1 [Compound I-65]
- log P [7]: 3.99

SMILES: COc1ccc(C2=NOC(=O)C2=Cc2c(C)cc(C)cc2C)cc1 [Compound I-67]
- log P [7]: 4.00

SMILES: Cc1cc(C)c(C=C2C(=O)ON=C2c2ccc(Cl)cc2)c(C)c1 [Compound I-70]
- log P [7]: 4.50
- activity (nematicidal action by gall formation) [9]: ≥ 80%

SMILES: COC(=O)CC(=O)c1cccc(C(F)(F)F)c1 [methyl 3-trifluoromethylbenzoylacetate]
- chromatographic logP [7]: 2.57

The next lines start with the values.

- log P [7]: 3.96
SMILES: Cc1cccc(C)c1C=C1C(=O)ON=C1c1cc(F)ccc1Cl [Compound I-39]

- log P [7]: 5.05
SMILES: Cc1cc(C)c(C=C2C(=O)ON=C2c2cc(Br)ccc2Br)c(C)c1 [Compound I-43]

- log P [7]: 4.57
SMILES: Cc1cccc(C)c1C=C1C(=O)ON=C1c1cc(Br)ccc1Br [Compound I-44]

- log P [7]: 4.88
SMILES: Cc1cc(C)cc(C2=NOC(=O)C2=Cc2c(C)cc(C)cc2C)c1 [Compound I-48]

- log P [7]: 4.41
SMILES: Cc1ccc(C2=NOC(=O)C2=Cc2c(C)cccc2C)cc1C [Compound I-50]

- log P [7]: 4.21
SMILES: COc1cc(OC)cc(C2=NOC(=O)C2=Cc2c(C)cc(C)cc2C)c1 [Compound I-53]

- log P [7]: 5.01
SMILES: Cc1cc(C)c(C=C2C(=O)ON=C2c2cc(Cl)cc(Cl)c2)c(C)c1 [Compound I-58]

- log P [7]: 4.62
SMILES: Cc1cc(C)c(C=C2C(=O)ON=C2c2ccc(C(F)(F)F)cc2)c(C)c1 [Compound I-59]

- log P [7]: 4.70
SMILES: Cc1cc(C)c(C=C2C(=O)ON=C2c2ccc(OC(C)C)cc2)c(C)c1 [Compound I-62]

- log P [7]: 5.01
SMILES: Cc1cc(C)c(C=C2C(=O)ON=C2c2ccc(OCc3ccccc3)cc2)c(C)c1 [Compound I-64]

- log P [7]: 4.44
SMILES: Cc1ccc(C2=NOC(=O)C2=Cc2c(C)cc(C)cc2C)cc1 [Compound I-66]

- chromatographic logP [7]: 4.08
SMILES: Cc1cc(C)c(/C=C2\C(=O)ON=C2c2ccc(F)cc2)c(C)c1 [Compound I-68, 4-(2,4,6-trimethylbenzylidene)-3-(4-fluorophenyl)-1,2-oxazol-5(4H)-one]

- log P [7]: 4.46
SMILES: CCOc1ccc(C2=NOC(=O)C2=Cc2c(C)cc(C)cc2C)cc1 [Compound I-69]
